Experimental data reported in US20150238617A1, “SILK RESERVOIRS FOR SUSTAINED DELIVERY OF ANTI-CANCER AGENTS” (TUFTS UNIVERSITY, priority 2012, published 2015).
Converted amounts (≈) assume the structure as drawn.

Key:
[1] = in vivo pharmacokinetics, plasma anastrozole by LC-MS/MS; design: species or system female Sprague-Dawley rats
Procedure: A 91-day pharmacokinetic study was conducted on female Sprague-Dawley rats (≧250 g). Test article animals were dosed by a single rod implantation, while positive drug control animals were dosed by a single injection of an ethanol:water (3:7, v/v) solution of equivalent dose. Prior to dosing, all animals were anesthetized by intraperitoneal injection of a cocktail containing ketamine HCl (75 mg/kg) and Xylazine HCl (5 mg/kg). Following anesthesia, the dorsal surface of all animals were shaved and prepared for aseptic administration by wiping with betadine and 70% isopropyl alcohol (3 times each). Animals were placed on a sterile surgical field and covered with Steridrape™. Dosing sites were closed with wound clips. The administration site was circled with indelible ink for future identification of location. Following dosing, all animals were placed in a warmed recovery area and observed until recovered from anesthesia and ambulatory. All animals were observed throughout dosing and each scheduled collection. Body weights were collected weekly in addition to the pre-dose body weight during the duration of the study. Serial blood samples were collected via tail vein or jugular vein at pre-dose, 2 h, 6 h, 24 h (1 d), 2 d, 4 d, 7 d, 10 d, 14 d, 21 d, 28 d, 35 d, 42 d, 49 d, 56 d, 63 d, 70 d, 77 d, 84 d and 91 d and analyzed via LC-MS/MS. Blood samples were stored on wet ice until processed to plasma by centrifugation within 30 min of collection. Plasma were stored at −80° C. until LC-MS/MS analysis.
Briefly, 150 μl of frozen in vivo sample or blank plasma (for double blank, blank and standards) was completely thawed and briefly centrifuged (2000 G, 3 min, 4° C.). […] For extraction, 1 ml diethyl ether:dichloromethane (7:3, v/v) was added to 25 μl of plasma (blank, standard or sample) and 10 μl of aqueous internal standard (100 ng/ml Chlorpheniramine) or deionized water (for double blank) in a glass centrifuge tube using glass serological pipettes and vortexed for 40 s. […]
The auto-sampler of the LC system was kept at 5° C. […] The limit of quantitation (LOQ) was 0.6 ng/ml.

[2] = cited from earlier work
[3] = cited from earlier work; remark: listed apart in the source
[4] = effective steady state diffusion coefficient from cylindrical silk reservoir; type: physicochemical; conditions: anastrozole diffusion in silk reservoir rods
Text: and different effective length, le values of 10 or 30 mm.

[5] = cited from earlier work; remark: listed apart in the source
[6] = cited from earlier work; remark: listed apart in the source
[7] = stability of anastrozole under in vitro release conditions (LC-MS/MS); conditions: deionized water, 0.02 wt. % NaN3, 37° C., longest inter-sampling duration 1 week
Procedure: The release volume was determined to ensure perfect sink conditions in case of a complete burst release according to:
where V, L and S are the release volume, drug loading and aqueous solubility, respectively. At pre-determined time points, 1 ml of the release medium was sampled. After each sampling, the whole medium was exchanged with fresh buffer.

CC(C)(C#N)c1cc(Cn2cncn2)cc(C(C)(C)C#N)c1 [anastrozole]
half-life ([1]; female, Sprague-Dawley, rat, plasma, sc, single s.c. injection of solution, high and low dose, read-out: apparent terminal elimination half-life (converted)): ~360 min | time of peak plasma concentration ([1]; single s.c. injection of solution (water:ethanol 7:3), high (14 mg) and low (5.8 mg) dose): 6 h | time to decline to background plasma levels ([1]; single s.c. injection of solution, high and low dose): ≤ 96 h | terminal elimination half-life t1/2 ([2]; Product Monograph value): 50 h | volume of distribution V ([2]; Product Monograph value): 74 L | steady state plasma concentration Css ([2]; factors in reported accumulation): 25 ng/mL | pKa [3]: 1.4 | effective steady state diffusion coefficient De [4]: 2.4×10^−8 cm^2/s | log P(octanol/water) [5]: 1.58 | water solubility ([6]; at 25° C.): 0.5 mg/mL (≈ 1700 µM) | aqueous solubility Cs of anastrozole in water ([6]; value used in diffusion equation): 5 mg/mL | degradation of Anastrozole under release conditions [7]: No significant degradation
